The source of these data is patent US20130345419A1, “AZOLE DERIVATIVE” (TAISHO PHARMACEUTICAL CO., LTD., priority 2011, published 2013).

In brackets after ≈: the same amount, converted by molar mass.

Series [1] can be described thus: Test 2: dissolution test in 1,3-butylene glycol/water/ethanol base. It is filed as physicochemical. As to conditions: base: 5 g 1,3-butylene glycol + 10 g water, ethanol to 100 mL, stirred at 25° C. for 7 days, HPLC. As for the experimental part:
(Test 2) Dissolution Test
To 5 g of 1,3-butylene glycol, 10 g of water was added and the mixture was stirred until homogeneity; thereafter, ethanol was added to make a total volume of 100 mL, whereby a base was prepared.

In series [2] the test system is C57BL mice. The experiment in a line: Test 3: hair development stimulating effect in shaven mouse model (Compound 1). In kind it is in vivo. The settings on record: 5% (w/v) solution in Test 2 base, 200 μL on shaven back once daily, day 15 of the administration and onward. The protocol:
(Test 3) Test for Measuring Hair Development Stimulating Effect in Shaven Mouse Model
C57BL mice (female, ca. 7-wk old) were shaven on the back and the base prepared in Test 2 or a solution prepared by dissolving 5% (w/v) of Compound 1 in this base was administered by applying them to the shaven area in 200-μL portions once daily starting 3 days after the shaving (each group consisting of 10 heads.) Every 2 or 3 days after the start of the administration, the state of hair development in the shaven area was scored in accordance with the following criteria.
(§1) Criteria for scoring the hair development: 1=No hair development. 2=Hair development in less than 30% of the shaven area. 3=Hair development in at least 30% but less than 60% of the shaven area. 4=Hair development in at least 60% but less than 90% of the shaven area. 5=Hair development in at least 90% of the shaven area.

A further series addresses T1, human recombinant FKBP12 (Homo sapiens, UniProt P62942).
T1 construct: purchased Sigma F-5398
The experiment in a line: Test 1: immunophilin FKBP12 rotamase (peptidylprolyl isomerase) inhibiting activity. It is filed as biochemical. The settings on record: 12 nM human recombinant FKBP12, substrate succinyl-Ala-Phe-Pro-Phe-paranitroanilide 48 μM, 4° C.; read-out: PKBP12 rotamase inhibiting activity IC50. The protocol:
(Test 1) Test for Measuring Immunophilin FKBP12 Rotamase Activity
The rotamase (peptidylprolyl isomerase) inhibiting activity of each test compound was measured by a known method (Harding et al., Nature 341, 758-760, 1989; Holts et al., J. Am. Chem. Soc. 115, 9925-9938, 1993.) To be more specific, a plastic cuvette was charged with 35 mM HEPES (pH 7.8), 12 nM human recombinant FKBP12 (Sigma, F-5398), 0.4 mg/mL α-chymotrypsin, and a test compound dissolved in DMSO at varying concentrations (DMSO's final concentration was 0.1%.) Subsequently, 24 mM of the substrate peptide, succinyl-Ala-Phe-Pro-Phe-paranitroanilide, as dissolved in trifluoroethanol containing 500 mM of LiCl was added to give a final concentration of 48 μM, whereupon reaction started. The reaction was carried out at 4° C. and the change in absorbance at 390 nm accompanying the liberation of the paranitroaniline product was monitored. A calculated initial rate minus the corresponding value in the absence of the enzyme was used as an index of rotamase activity. The rotamase inhibiting activity of a test compound was expressed in relative values (%) with respect to the control value of rotamase activity in the absence of the compound, and the concentration of the compound at which it was capable of inhibiting rotamase activity by 50% was calculated as an IC50 value from its concentration response curve.

Series [3] has as its system proliferating cell nuclear antigen (PCNA). In words: Test 6: anagen induction stimulating effect in shaven mouse model, skin PCNA by ELISA. In kind it is in vivo. The settings on record: 5% (w/v) in 80% ethanol, 200 μL once daily for 2 days, skin sampled about 4 hours after second administration, C57BL mice. As for the experimental part: (Test 6) Test for Measuring Anagen Induction Stimulating Effect in Shave Mouse Model
The anagen induction stimulating effect of a compound was measured by the following method with the quantity of skin PCNA being used as an index.
C57BL mice (female, ca. 7-wk old) were shaven on the back and a base (80% ethanol) or a solution prepared by dissolving 5% (w/v) of Compound 40, 52, 59, 61, 63, 64 or 66 in this base was administered by applying them to the shaven area in 200-μL portions once daily for 2 days starting 3 days after the shaving (each group consisting of 5 heads.) About 4 hours after the administration on the second day, the skin at the application site was sampled and homogenized in a buffer containing 50 mM Tris-HCl (pH 7.6), 150 mM NaCl, 1% NP-40, and a protease inhibitor. By a centrifugal separation procedure, a PCNA containing protein solution was prepared and the quantity of PCNA in the solution was measured with a PCNA-ELISA kit of Calbiochem, Inc.

For series [4], the system named is C57BL mice. The experiment in a line: Test 5: hair development stimulating effect in shaven mouse model (Compound 40). In kind it is in vivo. The settings on record: 5% (w/v) solution in Test 4 base, 200 μL on shaven back once daily, day 15 of the administration and onward.
Text: as §1
(Test 5) Test for Measuring Hair Development Stimulating Effect in Shaven Mouse Model
C57BL mice (female, ca. 7-wk old) were shaven on the back and the base prepared in Test 4 or a solution prepared by dissolving 5% (w/v) of Compound 40 in this base was administered by applying them to the shaven area in 200-μL portions once daily starting 3 days after the shaving (each group consisting of 10 heads.) Every 2 or 3 days after the start of the administration, the state of hair development in the shaven area was scored in accordance with the criteria described in Test 3.

A short description of series [5]: Test 4: dissolution test in ethanol/water base. In kind it is physicochemical. The settings on record: organic solvent or mixture, thermodynamic from solid; base: 79 mL ethanol, water to 100 mL; stirred at 5° C. for 3 days; HPLC. As for the experimental part:
(Test 4) Dissolution Test
To 79 mL of ethanol, water was added to give a total volume of 100 mL, whereby a base was prepared. An excess amount of a test compound was put into a test tube, the prepared base was added, and the mixture was stirred at 5° C. for 3 days and passed through a membrane filter (0.45 μm); the resulting filtrate was diluted with acetonitrile and the concentration of the diluted solution was measured by HPLC to determine the solubility of the compound.

T1 sequence (P62942 whole entry): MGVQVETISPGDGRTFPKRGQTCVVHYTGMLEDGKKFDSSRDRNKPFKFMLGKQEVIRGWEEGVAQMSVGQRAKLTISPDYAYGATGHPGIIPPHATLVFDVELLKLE

As to `COc1ccc(OCc2cc([C@@H]3CCCN3C(=O)C(F)(F)C3(O)CC(C)(C)CC(C)(C)C3)no2)cc1OC` [Compound 1, (S)-1-(2-(5-((3,4-Dimethoxyphenoxy)methyl)isoxazol-3-yl)pyrrolidin-1-yl)-2,2-difluoro-2-(1-hydroxy-3,3,5,5-tetramethylcyclohexyl)ethanone], the solubility (as a rule, how much of the substance goes into solution per volume) at 7 days in series [1] (1,3-butylene glycol/water/ethanol base, organic solvent or mixture, thermodynamic from solid) was 57.5 mg/mL. The “hair development scores versus base administered group” value in the series with C57BL mice [2] is listed as “higher than those in the base administered group”. In addition, at human recombinant FKBP12, the IC50 (commonly the concentration needed to halve the response being measured) was found to be 49 nM. As for `CC1(C)CC(C)(C)CC(O)(C(F)(F)C(=O)N2CCC[C@H]2c2cc(COc3cccnc3)on2)C1` [Compound 40, (S)-2,2-Difluoro-2-(1-hydroxy-3,3,5,5-tetramethylcyclohexyl)-1-(2-(5-((pyridin-3-yloxy)methyl)isoxazol-3-yl)pyrrolidin-1-yl)ethanone], the IC50 on human recombinant FKBP12 is 83 nM. Moreover, the “quantity of skin PCNA versus base administered group” value in series [3] was “higher values for the quantity of skin PCNA than the group administered with the base”. For the same compound, the “hair development scores versus base administered group” value in the series with C57BL mice [4] is listed as “higher than those in the base administered group”. For the same compound, in series [5], the solubility at 3 days is 113 mg/mL (≈ 237 mM). As for `CC1(C)CC(C)(C)CC(O)(C(F)(F)C(=O)N2CCC[C@H]2c2cc(COc3ccccc3)on2)C1` [Compound 52, (S)-2,2-Difluoro-2-(1-hydroxy-3,3,5,5-tetramethylcyclohexyl)-1-(2-(5-(phenoxymethyl)isoxazol-3-yl)pyrrolidin-1-yl)ethanone], on human recombinant FKBP12, the IC50 amounted to 204 nM. The “quantity of skin PCNA versus base administered group” value in series [3] is “increases in the quantity of skin PCNA”. Take `CC1(C)CC(C)(C)CC(O)(C(F)(F)C(=O)N2CCC[C@H]2c2cc(COc3cnccn3)on2)C1` [Compound 55, (S)-2,2-Difluoro-2-(1-hydroxy-3,3,5,5-tetramethylcyclohexyl)-1-(2-(5-((pyrazin-2-yloxy)methyl)isoxazol-3-yl)pyrrolidin-1-yl)ethanone]: the IC50 at human recombinant FKBP12 is 228 nM.

For the compound `CC1(C)CC(C)(C)CC(O)(C(F)(F)C(=O)N2CCC[C@H]2c2cc(COc3cccnn3)on2)C1` [Compound 56, (S)-2,2-Difluoro-2-(1-hydroxy-3,3,5,5-tetramethylcyclohexyl)-1-(2-(5-((pyridazin-3-yloxy)methyl)isoxazol-3-yl)pyrrolidin-1-yl)ethanone], the concentration for half-maximal inhibition (IC50) on human recombinant FKBP12 was 328 nM. As for `CC1(C)CC(C)(C)CC(O)(C(F)(F)C(=O)N2CCC[C@H]2c2cc(COc3ccncc3)on2)C1` [Compound 57, (S)-2,2-Difluoro-2-(1-hydroxy-3,3,5,5-tetramethylcyclohexyl)-1-(2-(5-((pyridin-4-yloxy)methyl)isoxazol-3-yl)pyrrolidin-1-yl)ethanone], the concentration for half-maximal inhibition (IC50) at human recombinant FKBP12 was 79 nM.

Consider `CC1(C)CC(C)(C)CC(O)(C(F)(F)C(=O)N2CCC[C@H]2c2cc(COc3ncccn3)on2)C1` [Compound 58, (S)-2,2-Difluoro-2-(1-hydroxy-3,3,5,5-tetramethylcyclohexyl)-1-(2-(5-((pyrimidin-2-yloxy)methyl)isoxazol-3-yl)pyrrolidin-1-yl)ethanone], for which the IC50 at human recombinant FKBP12 was 250 nM. Take `CC1(C)CC(C)(C)CC(O)(C(F)(F)C(=O)N2CCC[C@H]2c2cc(COc3cncnc3)on2)C1` [Compound 59]: the IC50 on human recombinant FKBP12 turned out to be 124 nM. Besides, the “quantity of skin PCNA versus base administered group” value in series [3] is listed as “increases in the quantity of skin PCNA”.

With `CC1(C)CC(C)(C)CC(O)(C(F)(F)C(=O)N2CCC[C@H]2c2cc(Cn3ccccc3=O)on2)C1` [Compound 60, (S)-1-((3-(1-(2,2-Difluoro-2-(1-hydroxy-3,3,5,5-tetramethylcyclohexyl)acetyl)pyrrolidin-2-yl)isoxazol-5-yl)methyl)pyridin-2(1H)-one], on human recombinant FKBP12, the IC50 was 376 nM. Consider `CC1(C)CC(C)(C)CC(O)(C(F)(F)C(=O)N2CCC[C@H]2c2cc(Cn3ccc(=O)nc3)on2)C1` [Compound 61, (S)-1-((3-(1-(2,2-Difluoro-2-(1-hydroxy-3,3,5,5-tetramethylcyclohexyl)acetyl)pyrrolidin-2-yl)isoxazol-5-yl)methyl)pyrimidin-4(1H)-one], for which the IC50 on human recombinant FKBP12 is 152 nM. In addition, the “quantity of skin PCNA versus base administered group” value in series [3] is “increases in the quantity of skin PCNA”. For `CC1(C)CC(C)(C)CC(O)(C(F)(F)C(=O)N2CCC[C@H]2c2cc(Cn3cnccc3=O)on2)C1` [Compound 62, (S)-3-((3-(1-(2,2-Difluoro-2-(1-hydroxy-3,3,5,5-tetramethylcyclohexyl)acetyl)pyrrolidin-2-yl)isoxazol-5-yl)methyl)pyrimidin-4(3H)-one], the IC50 at human recombinant FKBP12 was found to be 210 nM. Consider `CC1(C)CC(C)(C)CC(O)(C(F)(F)C(=O)N2CCC[C@H]2c2cc(COc3ccncn3)on2)C1` [Compound 63, (S)-2,2-Difluoro-2-(1-hydroxy-3,3,5,5-tetramethylcyclohexyl)-1-(2-(5-((pyrimidin-4-yloxy)methyl)isoxazol-3-yl)pyrrolidin-1-yl)ethanone], for which, on human recombinant FKBP12, the IC50 was found to be 185 nM. In addition, the “quantity of skin PCNA versus base administered group” value in series [3] is on record as “increases in the quantity of skin PCNA”. For `CC1(C)CC(C)(C)CC(O)(C(F)(F)C(=O)N2CCC[C@H]2c2cc(COc3cccc(F)c3)on2)C1` [Compound 64, (S)-2,2-Difluoro-1-(2-(5-((3-fluorophenoxy)methyl)isoxazol-3-yl)pyrrolidin-1-yl)-2-(1-hydroxy-3,3,5,5-tetramethylcyclohexyl)ethanone], on human recombinant FKBP12, the IC50 amounted to 182 nM. In series [3], the “quantity of skin PCNA versus base administered group” value is given as “increases in the quantity of skin PCNA”. As for `Cc1ccc(OCc2cc([C@@H]3CCCN3C(=O)C(F)(F)C3(O)CC(C)(C)CC(C)(C)C3)no2)cc1` [Compound 65], the IC50 at human recombinant FKBP12 came out at 241 nM. Regarding `CC1(C)CC(C)(C)CC(O)(C(F)(F)C(=O)N2CCC[C@H]2c2cc(Cn3ccc(=O)cc3)on2)C1` [Compound 66, (S)-1-((3-(1-(2,2-Difluoro-2-(1-hydroxy-3,3,5,5-tetramethylcyclohexyl)acetyl)pyrrolidin-2-yl)isoxazol-5-yl)methyl)pyridin-4(1H)-one], the “skin PCNA levels relative to base administered group” value in series [3] is “approximately 1.4 times”. In the case of `COc1ccc(OCc2nc([C@@H]3CCCN3C(=O)C(F)(F)C3(O)CC(C)(C)CC(C)(C)C3)no2)cc1OC` [comparative example, reference compound], in series [1], the solubility turned out to be 30.8 mg/mL.
